From US20080207728A1, “BICYCLIC ACYLTRYPTOPHANOLS” (priority 2006, published 2008)

Biological target: T1, human FSH receptor (Homo sapiens, UniProt P23945)
T1 construct: expressed in transfected cells; host or cells: CHO cells (hFSHR clone 16)
T1 sequence (P23945 18-695): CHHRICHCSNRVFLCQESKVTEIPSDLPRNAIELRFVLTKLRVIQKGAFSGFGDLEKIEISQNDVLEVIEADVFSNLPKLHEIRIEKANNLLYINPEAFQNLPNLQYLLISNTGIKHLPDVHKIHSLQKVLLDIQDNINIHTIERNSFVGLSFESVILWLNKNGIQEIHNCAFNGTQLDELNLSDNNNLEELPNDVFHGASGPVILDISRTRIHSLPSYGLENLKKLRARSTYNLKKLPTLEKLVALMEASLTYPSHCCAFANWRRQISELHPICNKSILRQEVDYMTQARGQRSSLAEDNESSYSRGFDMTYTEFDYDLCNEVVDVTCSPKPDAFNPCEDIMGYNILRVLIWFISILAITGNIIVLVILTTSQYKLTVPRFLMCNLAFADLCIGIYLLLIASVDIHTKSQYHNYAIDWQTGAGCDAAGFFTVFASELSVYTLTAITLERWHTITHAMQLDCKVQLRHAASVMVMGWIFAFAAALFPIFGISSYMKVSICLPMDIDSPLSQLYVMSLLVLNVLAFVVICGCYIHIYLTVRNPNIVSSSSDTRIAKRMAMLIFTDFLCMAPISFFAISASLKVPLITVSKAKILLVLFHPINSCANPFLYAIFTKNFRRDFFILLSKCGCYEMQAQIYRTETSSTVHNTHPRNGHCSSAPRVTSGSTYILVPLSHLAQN
Test: HTRF assay for measuring cAMP in cells (FSH antagonism)
Type: cell-based
Details: Table 2; hFSHR clone 16 cells (CHO cells stably transfected with the human FSH receptor), in the presence of 1e-9 mol/l hFSH, 37° C. for 2 h; read-out: IC50 (FSH-antagonistic effect in the HTRF assay)
Description: HTRF Assay for Measuring cAMP in Cells
The method is based on a competitive immunoassay between native cAMP, which has been produced by the cells, and cAMP which is labelled with XL665. The tracer binding was visualized by a monoclonal antibody, anti-cAMP labelled with cryptate [HTRF=homogeneous time-resolved fluorescence].
The specific signal is inversely proportional to the cAMP concentration of the samples employed.
The 665 nm/620 nm fluorescence ratio was evaluated.
The following material was used: 96-well plates for the tissue culture, 96-well plates with black edge and black base (e.g. Fluotrac 600 from Greiner), 96-well plates for the substance dilutions of polypropylene and cAMP Femtomolar (4000 wells Kit, CIS Bio International # 62AM1PEC).
The following reagents were used: BSA (bovine serum albumin) Fraction V protease-free, IBMX (3-isobutyl-1-methylxanthine), hFSH (human follicle stimulating hormone), Triton X-100 analytical grade, potassium fluoride analytical grade, G 418 (Geneticin) and Accutase.
Buffer 1 (washing and testing buffer) contained PBS, 1 mM CaCl2, 1 mM MgCl2, 0.2% glucose; 0.1% BSA, 1 mM IBMX.
Buffer 2 (2× lysis buffer) contained 1% Triton X-100 in PBS (without CaCl2 and MgCl2).
Buffer 3 (assay buffer) contained 50 mM potassium phosphate buffer (pH 7.0); 800 mM potassium fluoride; 0.2% BSA (always added fresh).
On day 1, the cells were seeded in 96-well plates (3×10^4 cells per well hFSHR clone 16 cells (CHO cells stably transfected with the human FSH receptor in 150 μl of medium).
The next day, test substance dilutions were made up. For this purpose, all the substances were diluted in ice-cold buffer 1 (with or without hFSH), and the substance dilutions were placed on ice until applied to the cells.
The cell supernatant was then aspirated off, and the cells were washed 2× with 200 μl of buffer 1. The cells were treated with 60 μl of the appropriate substance concentrations at 37° C. for 2 h. The cells were then lysed with 60 μl of buffer 2 (put onto the supernatant) (on a plate shaker at RT for 30 min).
The test conjugates (XL-665 and anti-cAMP cryptate) were diluted in buffer 3 in accordance with the manufacturers' information. The actual mixture for measurement was pipetted into a black 96-well plate (in each case 15 μl of the cell lysate diluted with 35 μl of buffer 1; firstly 25 μl of XL-665 conjugate were pipetted and, after 10 min, 25 μl of the anti-cAMP cryptate were added). This is followed by incubation at RT for 90 minutes. The measurement was carried out in a PheraStar (BMG).
Tissue Culture Conditions
Dose-effect curve (hFSH) for the human receptor: 1e-8, 3e-9, 1 e-9, 3e-10, 1 e-10, 3e-11, 1e-11, 3e-12 mol/l.
The test substances were employed in suitable dilutions in the absence (test for agonism) and in the presence of 1e-9 mol/l hFSH.
The values of the well ratio were averaged and then entered directly in SigmaPlot versus the concentrations. The maximum and minimum values were determined for each plate, and half the difference is to be regarded as IC50.

Row | IC50 [nM] | Structure (SMILES)
1 | 950 | COc1ccc(-c2cc3c(c(C(=O)N[C@@H](CO)Cc4c[nH]c5ccccc45)c2)OCCO3)cc1F [Example 109, 7-(3-Fluoro-4-methoxy-phenyl)-2,3-dihydro-benzo[1,4]dioxine-5-carboxylic acid [(R)-1-hydroxymethyl-2-(1H-indol-3-yl)-ethyl]-amide]
2 | 130 | COC(=O)c1ccc(-c2cc3c(c(C(=O)N[C@@H](CO)Cc4c[nH]c5ccccc45)c2)OCCO3)cc1OC [Example 118, 4-{8-[(R)-1-Hydroxymethyl-2-(1H-indol-3-yl)-ethylcarbamoyl]-2,3-dihydro-benzo[1,4]dioxin-6-yl}-2-methoxy-benzoic acid methyl ester]
3 | 200 | CNC(=O)c1ccc(-c2cc3c(c(C(=O)N[C@@H](CO)Cc4c[nH]c5ccccc45)c2)OCCO3)cc1 [Example 142, 7-(4-Methylcarbamoyl-phenyl)-2,3-dihydro-benzo[1,4]dioxine-5-carboxylic acid [(R)-1-hydroxymethyl-2-(1H-indol-3-yl)-ethyl]-amide]
4 | 70 | CNC(=O)c1ccc(-c2cc3c(c(C(=O)NC(CO)Cc4c[nH]c5c(F)cc(F)cc45)c2)OC(C)(C)CC3)cc1Cl (stereo not drawn) [Example 190, 6-(3-Chloro-4-methylcarbamoyl-phenyl)-2,2-dimethyl-chroman-8-carboxylic acid [2-(5,7-difluoro-1H-indol-3-yl)-1-hydroxymethyl-ethyl]amide]

Second part, the compound before the results:

Row | Structure (SMILES) | IC50 [nM]
5 | CS(=O)(=O)c1cccc(-c2cc3c(c(C(=O)N[C@@H](CO)Cc4c[nH]c5ccccc45)c2)OCCO3)c1 [Example 116, 7-(3-Methanesulfonyl-phenyl)-2,3-dihydro-benzo[1,4]dioxine-5-carboxylic acid [(R)-1-hydroxymethyl-2-(1H-indol-3-yl)-ethyl]-amide] | 2000
6 | CN(C)S(=O)(=O)c1ccc(-c2cc3c(c(C(=O)N[C@@H](CO)Cc4c[nH]c5ccccc45)c2)OCCO3)cc1 [Example 123, 7-(4-Dimethylsulfamoyl-phenyl)-2,3-dihydro-benzo[1,4]dioxine-5-carboxylic acid [(R)-1-hydroxymethyl-2-(1H-indol-3-yl)-ethyl]-amide] | 2000
7 | O=C(N[C@@H](CO)Cc1c[nH]c2ccccc12)c1cc(-c2cccc(Cl)c2)cc2c1OCCO2 [Example 130, 7-(3-Chloro-phenyl)-2,3-dihydro-benzo[1,4]dioxine-5-carboxylic acid [(R)-1-hydroxymethyl-2-(1H-indol-3-yl)-ethyl]-amide] | 3000
8 | Nc1cccc(-c2cc3c(c(C(=O)N[C@@H](CO)Cc4c[nH]c5ccccc45)c2)OCCO3)c1 [Example 135, 7-(3-Amino-phenyl)-2,3-dihydro-benzo[1,4]dioxine-5-carboxylic acid [(R)-1-hydroxymethyl-2-(1H-indol-3-yl)-ethyl]-amide] | 800
9 | Cc1ccccc1-c1cc2c(c(C(=O)N[C@@H](CO)Cc3c[nH]c4ccccc34)c1)OCCO2 [Example 143, 7-o-Tolyl-2,3-dihydro-benzo[1,4]dioxine-5-carboxylic acid [(R)-1-hydroxymethyl-2-(1H-indol-3-yl)-ethyl]-amide] | 9000
